The target in one assay is T1, human Chk1 kinase (Homo sapiens, UniProt O14757).
T1 sequence (O14757 1-476): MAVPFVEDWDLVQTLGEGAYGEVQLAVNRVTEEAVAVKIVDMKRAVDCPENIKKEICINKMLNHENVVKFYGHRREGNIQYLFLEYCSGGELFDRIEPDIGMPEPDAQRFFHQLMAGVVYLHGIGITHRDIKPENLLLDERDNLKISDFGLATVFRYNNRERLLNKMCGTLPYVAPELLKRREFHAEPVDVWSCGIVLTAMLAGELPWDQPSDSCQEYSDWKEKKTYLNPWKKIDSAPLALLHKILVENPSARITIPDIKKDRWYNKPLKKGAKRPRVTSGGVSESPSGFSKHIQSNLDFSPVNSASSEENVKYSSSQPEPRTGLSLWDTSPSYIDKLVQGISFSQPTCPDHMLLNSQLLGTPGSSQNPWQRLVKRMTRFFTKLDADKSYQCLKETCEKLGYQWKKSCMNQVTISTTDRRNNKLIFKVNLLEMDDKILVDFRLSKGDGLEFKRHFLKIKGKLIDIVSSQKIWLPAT
Nature of the assay: biochemical.

The target in another assay is human Chk2 kinase (Homo sapiens, UniProt O96017). Nature of the assay: biochemical.

The term IC50 denotes the midpoint of a concentration-inhibition curve. A lower IC50 goes with greater potency in that assay.

human Chk2 kinase, sequence (O96017 whole entry): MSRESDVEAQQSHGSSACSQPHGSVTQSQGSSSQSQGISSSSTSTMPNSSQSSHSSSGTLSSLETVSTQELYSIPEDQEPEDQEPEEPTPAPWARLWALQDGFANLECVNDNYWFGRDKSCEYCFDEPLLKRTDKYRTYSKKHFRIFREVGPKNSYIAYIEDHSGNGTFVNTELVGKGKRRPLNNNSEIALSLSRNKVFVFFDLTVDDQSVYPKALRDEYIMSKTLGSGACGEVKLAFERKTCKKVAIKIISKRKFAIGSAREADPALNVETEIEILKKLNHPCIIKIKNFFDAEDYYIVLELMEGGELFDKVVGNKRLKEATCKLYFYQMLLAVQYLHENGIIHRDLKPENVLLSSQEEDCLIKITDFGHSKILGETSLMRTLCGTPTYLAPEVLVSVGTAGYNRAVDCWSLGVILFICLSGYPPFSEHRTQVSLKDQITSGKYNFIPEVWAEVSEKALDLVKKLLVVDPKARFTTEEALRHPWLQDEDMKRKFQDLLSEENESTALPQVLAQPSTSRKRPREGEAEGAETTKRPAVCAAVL

Turning to `COc1cc(N(C)CC2CCN(C)CC2)ccc1-n1cnc(Nc2cnc(C#N)cn2)c1` [Example 36, 5-((1-(2-Methoxy-4-(methyl((1-methylpiperidin-4-yl)methyl)amino)phenyl)-1H-imidazol-4-yl)amino)pyrazine-2-carbonitrile], the half-inhibitory concentration (IC50) against human Chk1 kinase was in the range of 31.6 to 100 nM; against human Chk2 kinase, 10 to 100 µM.

On to `CN(C)C1CCN(c2ccc(-n3cnc(Nc4cnc(C#N)cn4)c3)cc2)CC1` [Example 37, 5-((1-(4-(4-(Dimethylamino)piperidin-1-yl)phenyl)-1H-imidazol-4-yl)amino)pyrazine-2-carbonitrile], for which the IC50 against human Chk1 kinase is < 10 nM; at human Chk2 kinase, 1 to 10 µM.

On to `CN(C)[C@@H]1CCN(c2cccc(-n3cnc(Nc4cnc(C#N)cn4)c3)c2)C1` [Example 38, (R)-5-((1-(3-(3-(Dimethylamino)pyrrolidin-1-yl)phenyl)-1H-imidazol-4-yl)amino)pyrazine-2-carbonitrile], for which the IC50 against human Chk1 kinase fell in the range of 10 to 31.6 nM; on human Chk2 kinase it was 10 to 100 µM.

On to `CN1CCC2(CC1)CCN(c1cccc(-n3cnc(Nc4cnc(C#N)cn4)c3)c1)C2` [Example 39, 5-((1-(3-(8-Methyl-2,8-diazaspiro[4.5]decan-2-yl)phenyl)-1H-imidazol-4-yl)amino)pyrazine-2-carbonitrile], for which the values for the concentration for half-maximal inhibition (IC50) at human Chk1 kinase and at human Chk2 kinase were 10 to 31.6 nM and 10 to 100 µM, respectively.

`CCN1CCC(Nc2ccc(-n3cnc(Nc4cnc(C#N)cn4)c3)c(OC)c2)CC1` [Example 41, 5-((1-(4-((1-Ethylpiperidin-4-yl)amino)-2-methoxyphenyl)-1H-imidazol-4-yl)amino)pyrazine-2-carbonitrile]: the IC50 at human Chk1 kinase lay in the range of 10 to 31.6 nM; against human Chk2 kinase it was 10 to 100 µM.

In the case of `CN1C[C@@H]2CC[C@H]1CN2c1ccc(-n2cnc(Nc3cnc(C#N)cn3)c2)cc1` [Example 42, 5-((1-(4-((1S,4S)-5-Methyl-2,5-diazabicyclo[2.2.2]octan-2-yl)phenyl)-1H-imidazol-4-yl)amino)pyrazine-2-carbonitrile], the IC50 at human Chk1 kinase is < 10 nM; at human Chk2 kinase, 10 to 100 µM.

Consider `CN1CCC(N(C)c2cccc(-n3cnc(Nc4cnc(C#N)cn4)c3)c2)CC1` [Example 43, 5-((1-(3-(Methyl(1-methylpiperidin-4-yl)amino)phenyl)-1H-imidazol-4-yl)amino)pyrazine-2-carbonitrile], for which the IC50 is 31.6 to 100 nM against human Chk1 kinase and 10 to 100 µM against human Chk2 kinase.

`COc1cc(N2C[C@H]3C[C@@H]2CN3C)ccc1-n1cnc(Nc2cnc(C#N)cn2)c1` [Example 44, 5-((1-(2-Methoxy-4-((1R,4R)-5-methyl-2,5-diazabicyclo[2.2.1]heptan-2-yl)phenyl)-1H-imidazol-4-yl)amino)pyrazine-2-carbonitrile]: the values for the IC50 on human Chk1 kinase and at human Chk2 kinase were 10 to 31.6 nM and 10 to 100 µM, respectively.

`CC(C)(C)N1CC(Oc2ccc(-n3cnc(Nc4cnc(C#N)cn4)c3)cc2)C1` [Example 45, 5-((1-(4-((1-(tert-Butyl)azetidin-3-yl)oxy)phenyl)-1H-imidazol-4-yl)amino)pyrazine-2-carbonitrile]: the IC50 was 10 to 31.6 nM against human Chk1 kinase and 10 to 100 µM on human Chk2 kinase.

On to `COc1cc(N2CC3(CN(C)C3)C2)ccc1-n1cnc(Nc2cnc(C#N)cn2)c1` [Example 46, 5-((1-(2-Methoxy-4-(6-methyl-2,6-diazaspiro[3.3]heptan-2-yl)phenyl)-1H-imidazol-4-yl)amino)pyrazine-2-carbonitrile], for which the figures for the IC50 at human Chk1 kinase and against human Chk2 kinase were 10 to 31.6 nM and 10 to 100 µM, respectively.

For `CCCN1CC(Oc2cccc(-n3cnc(Nc4cnc(C#N)cn4)c3)c2)C1` [Example 48, 5-((1-(3-((1-Propylazetidin-3-yl)oxy)phenyl)-1H-imidazol-4-yl)amino)pyrazine-2-carbonitrile], the IC50 against human Chk1 kinase was 31.6 to 100 nM; on human Chk2 kinase, > 100 µM.

For the compound `COc1cc(N2CC[C@@H](N3CCCC3)C2)ccc1-n1cnc(Nc2cnc(C#N)cn2)c1` [Example 51, (R)-5-((1-(4-([1,3′-Bipyrrolidin]-1′-yl)-2-methoxyphenyl)-1H-imidazol-4-yl)amino)pyrazine-2-carbonitrile], the values for the IC50 at human Chk1 kinase and on human Chk2 kinase were < 10 nM and 1 to 10 µM, respectively.

On to `COc1cc(OC2CN(C(C)(C)C)C2)ccc1-n1cnc(Nc2cnc(C#N)cn2)c1` [Example 53, 5-((1-(4-((1-(tert-Butyl)azetidin-3-yl)oxy)-2-methoxyphenyl)-1H-imidazol-4-yl)amino)pyrazine-2-carbonitrile], for which the results for the IC50 against human Chk1 kinase and on human Chk2 kinase were 10 to 31.6 nM and 10 to 100 µM, respectively.

For `Cc1cc(CN2CC[C@@H](F)C2)cc(C(F)(F)F)c1-n1cnc(Nc2cnc(C#N)cn2)c1` [Example 54, (R)-5-((1-(4-((3-Fluoropyrrolidin-1-yl)methyl)-2-methyl-6-(trifluoromethyl)phenyl)-1H-imidazol-4-yl)amino)pyrazine-2-carbonitrile], the concentration for half-maximal inhibition (IC50) on human Chk1 kinase is 100 to 316 nM; against human Chk2 kinase, > 100 µM.

For `COc1cc(N2C[C@H]3CCN(C)[C@H]3C2)ccc1-n1cnc(Nc2cnc(C#N)cn2)c1` [Example 55, 5-((1-(2-Methoxy-4-((3aR,6aR)-1-methylhexahydropyrrolo[3,4-b]pyrrol-5(1H)-yl)phenyl)-1H-imidazol-4-yl)amino)pyrazine-2-carbonitrile], the figures for the IC50 against human Chk1 kinase and against human Chk2 kinase were 10 to 31.6 nM and 10 to 100 µM, respectively.

As to `CN1C[C@H](F)[C@H](Oc2cccc(-n3cnc(Nc4cnc(C#N)cn4)c3)c2)C1` [Example 56, 5-((1-(3-(((3R,4S)-4-fluoro-1-methylpyrrolidin-3-yl)oxy)phenyl)-1H-imidazol-4-yl)amino)pyrazine-2-carbonitrile], the figures for the IC50 at human Chk1 kinase and at human Chk2 kinase were 100 to 316 nM and 10 to 100 µM, respectively.

As for `Cc1cc(CN2CC[C@@H](F)C2)cc(C)c1-n1cnc(Nc2cnc(C#N)cn2)c1` [Example 57, (R)-5-((1-(4-((3-Fluoropyrrolidin-1-yl)methyl)-2,6-dimethylphenyl)-1H-imidazol-4-yl)amino)pyrazine-2-carbonitrile], the values for the IC50 on human Chk1 kinase and at human Chk2 kinase were 316 to 1000 nM and > 100 µM, respectively.

Regarding `Cc1ccc(-n2cnc(Nc3cnc(C#N)cn3)c2)cc1N1CC[C@@H](N(C)C)C1` [Example 58, (R)-5-((1-(3-(3-(Dimethylamino)pyrrolidin-1-yl)-4-methylphenyl)-1H-imidazol-4-yl)amino)pyrazine-2-carbonitrile], the IC50 against human Chk1 kinase lay in the range of 31.6 to 100 nM; on human Chk2 kinase, 10 to 100 µM.

`CN1CCC2(CC1)CCN(c1ccc(-n3cnc(Nc4cnc(C#N)cn4)c3)cc1)C2` [Example 60, 5-((1-(4-(8-Methyl-2,8-diazaspiro[4.5]decan-2-yl)phenyl)-1H-imidazol-4-yl)amino)pyrazine-2-carbonitrile]: the results for the IC50 on human Chk1 kinase and on human Chk2 kinase were 31.6 to 100 nM and 10 to 100 µM, respectively.

Turning to `CN(C)[C@H]1CN(c2ccc(-n3cnc(Nc4cnc(C#N)cn4)c3)cc2)C[C@H]1F` [Example 62, 5-((1-(4-((3S,4R)-3-(Dimethylamino)-4-fluoropyrrolidin-1-yl)phenyl)-1H-imidazol-4-yl)amino)pyrazine-2-carbonitrile], the IC50 fell in the range of 10 to 31.6 nM against human Chk1 kinase and 1 to 10 µM on human Chk2 kinase.

For the compound `CN(C)[C@H]1CN(c2ccc(-n3cnc(Nc4cnc(C#N)cn4)c3)cc2)C[C@@H]1F` [Example 63, 5-((1-(4-((3S,4S)-3-(Dimethylamino)-4-fluoropyrrolidin-1-yl)phenyl)-1H-imidazol-4-yl)amino)pyrazine-2-carbonitrile], the IC50 was < 10 nM against human Chk1 kinase and 1 to 10 µM on human Chk2 kinase.

As to `CN(C)C[C@@H]1CCCN1c1ccc(-n2cnc(Nc3cnc(C#N)cn3)c2)cc1` [Example 66, (S)-5-((1-(4-(2-((Dimethylamino)methyl)pyrrolidin-1-yl)phenyl)-1H-imidazol-4-yl)amino)pyrazine-2-carbonitrile], the results for the concentration for half-maximal inhibition (IC50) on human Chk1 kinase and on human Chk2 kinase were 31.6 to 100 nM and 10 to 100 µM, respectively.

In the case of `CN(C)[C@@H]1CCN(c2ccc(-n3cnc(Nc4cnc(C#N)cn4)c3)cc2C(F)(F)F)C1` [Example 70, (R)-5-((1-(4-(3-(Dimethylamino)pyrrolidin-1-yl)-3-(trifluoromethyl)phenyl)-1H-imidazol-4-yl)amino)pyrazine-2-carbonitrile], the results for the IC50 at human Chk1 kinase and against human Chk2 kinase were 31.6 to 100 nM and 1 to 10 µM, respectively.

Turning to `N#Cc1cnc(Nc2cn(-c3ccc(N4CC[C@@H](N5CCOCC5)C4)cc3)cn2)cn1` [Example 72, (R)-5-((1-(4-(3-Morpholinopyrrolidin-1-yl)phenyl)-1H-imidazol-4-yl)amino)pyrazine-2-carbonitrile], the IC50 at human Chk1 kinase was 10 to 31.6 nM; against human Chk2 kinase, 10 to 100 µM.

On to `CN(C)[C@@H]1CCN(c2ccc(-n3cnc(Nc4cnc(C#N)cn4)c3)nc2C(F)(F)F)C1` [Example 77, (R)-5-((1-(5-(3-(Dimethylamino)pyrrolidin-1-yl)-6-(trifluoromethyl)pyridin-2-yl)-1H-imidazol-4-yl)amino)pyrazine-2-carbonitrile], for which the IC50 is 10 to 31.6 nM against human Chk1 kinase and 10 to 100 µM against human Chk2 kinase.

As for `CN1C[C@@H]2CN(c3ccc(-n4cnc(Nc5cnc(C#N)cn5)c4)c(F)c3)[C@@H]2C1` [Example 80, 5-((1-(2-Fluoro-4-((1R,5S)-3-methyl-3,6-diazabicyclo[3.2.0]heptan-6-yl)phenyl)-1H-imidazol-4-yl)amino)pyrazine-2-carbonitrile], the IC50 fell in the range of 31.6 to 100 nM on human Chk1 kinase and 10 to 100 µM against human Chk2 kinase.

Turning to `CN1C[C@H]2CN(c3ccc(-n4cnc(Nc5cnc(C#N)cn5)c4)c(F)c3)[C@H]2C1` [Example 81, 5-((1-(2-Fluoro-4-((1S,5R)-3-methyl-3,6-diazabicyclo[3.2.0]heptan-6-yl)phenyl)-1H-imidazol-4-yl)amino)pyrazine-2-carbonitrile], the IC50 was 31.6 to 100 nM against human Chk1 kinase and 1 to 10 µM against human Chk2 kinase.

(Values after patent US20260132140A1, “IMIDAZOLYL-AMINO-PYRAZINE-CARBONITRILS AS CHK-1 INHIBITORS” (BenevolentAI Bio Limited, priority 2022, published 2026).)
